Laboratory results as given in patent publication US20120122727A1, “IN VITRO METHOD FOR PREDICTING WHETHER A COMPOUND IS GENOTOXIC IN VIVO” (priority 2009, published 2012).

System: primary mouse hepatocytes
Test: Gene expression (Affymetrix Mouse Genome 430 2.0) in primary mouse hepatocytes, true vs false GTX, 24 h and 48 h
Settings: log2, corrected for vehicle control

`Nc1ccccc1C(=O)O` [ANAC, o-Anthranilic acid] was tested, and the “Gene expression data AF000969 (Cadps2)” value (24 h average) was −0.12, the “Gene expression data AF022072 (Grb10)” value (24 h average) was 0.4544 and the “Gene expression data AF065917 (Lif)” value (24 h average) was −0.2023. For the same compound, the “Gene expression data AF204959 (Cyp3a25 /// LOC622249)” value (24 h average) was −0.28, the “Gene expression data AF297615 (Ggta1)” value (24 h average) was 0.03103 and the “Gene expression data AI594683 (Dmn)” value (24 h average) was −0.2163. The “Gene expression data AI596632 (Ptprg /// LOC632664)” value (24 h average) was 0.1214, the “Gene expression data AI987929 (Ndrg1)” value (24 h average) was 0.6977 and the “Gene expression data AK004419 (Fbxl17)” value (24 h average) was −0.01793. The “Gene expression data AK005731 (1700007K13Rik)” value (24 h average) was −0.1733, the “Gene expression data AK007766 (1810044A24Rik)” value (24 h average) was −0.05167 and the “Gene expression data AK007854 (1810053B23Rik)” value (24 h average) was −0.4283. For the same compound, the “Gene expression data AK009736 (Gpr137b /// LOC664862 /// LOC673335)” value (24 h average) was −0.0957, the “Gene expression data AK010447 (Smyd3)” value (24 h average) was −0.1211 and the “Gene expression data AK014608 (4632434l11Rik)” value (24 h average) was −0.1768. The “Gene expression data AK019979 (2610528E23Rik)” value (24 h average) was 0.1139, the “Gene expression data AV095209 (Mthfd1l)” value (24 h average) was 0.3162 and the “Gene expression data AV141095 (1110033M05Rik)” value (24 h average) was −0.1293. For the same compound, the “Gene expression data AV173571 (1700106N22Rik)” value (24 h average) was −0.1574, the “Gene expression data AV219418 (Ldhb)” value (24 h average) was −0.2907 and the “Gene expression data AV223474 (Zdhhc14)” value (24 h average) was −0.07347. The “Gene expression data AV298304 (Homez)” value (24 h average) was −0.0861, the “Gene expression data AV327248 (Zfp365 /// LOC674611)” value (24 h average) was 0.0212 and the “Gene expression data AV377066 (9130221J18Rik)” value (24 h average) was −0.2482. For the same compound, the “Gene expression data AW240761 (Tbc1d5)” value (24 h average) was 0.001667, the “Gene expression data AW543460 (Pard3)” value (24 h average) was 0.06037 and the “Gene expression data AW543723” value (24 h average) was 0.2943. The “Gene expression data AW986246 (Maoa)” value (24 h average) was 0.01683, the “Gene expression data BB027848 (4732466D17Rik)” value (24 h average) was −0.03697 and the “Gene expression data BB043558 (9230114K14Rik)” value (24 h average) was −0.1292. For the same compound, the “Gene expression data BB275142 (AW456874)” value (24 h average) was 0.02823, the “Gene expression data BB308836 (Ppm1l)” value (24 h average) was −0.0317 and the “Gene expression data BB318221 (Zdhhc14)” value (24 h average) was 0.0002333. For the same compound, the “Gene expression data BB463610 (4632434l11Rik)” value (24 h average) was −0.3672, the “Gene expression data BB526605 (Mipol1)” value (24 h average) was 0.3407 and the “Gene expression data BB770528 (Rai2)” value (24 h average) was −0.08327. The “Gene expression data BB821363 (Scfd2)” value (24 h average) was −0.084, the “Gene expression data BC004827 (Psat1)” value (24 h average) was 0.3937 and the “Gene expression data BC008626 (Icam1)” value (24 h average) was −0.2705. The “Gene expression data BC010462 (BC010462)” value (24 h average) was −0.4089, the “Gene expression data BC012247 (Dcxr)” value (24 h average) was −0.0311 and the “Gene expression data BC012260 (Psmf1)” value (24 h average) was −0.1838. For the same compound, the “Gene expression data BC015270 (Hist2h3c2)” value (24 h average) was 0.1186, the “Gene expression data BC016073 (Cdkal1)” value (24 h average) was 0.0051 and the “Gene expression data BC016265 (Ube2e2)” value (24 h average) was 0.01507. For the same compound, the “Gene expression data BC019882 (Acaa1b)” value (24 h average) was 1.0984, the “Gene expression data BC025501 (Aaas)” value (24 h average) was −0.2261 and the “Gene expression data BC025837 (Sbk1)” value (24 h average) was −0.3033. The “Gene expression data BC025915 (Cova1)” value (24 h average) was −0.05383, the “Gene expression data BC026422 (Tgm1)” value (24 h average) was 0.0232 and the “Gene expression data BF719766 (Thyn1)” value (24 h average) was −0.1153. For the same compound, the “Gene expression data BG065754 (Ccng1)” value (24 h average) was −0.08917, the “Gene expression data BG066903 (Kif16b)” value (24 h average) was 0.0241 and the “Gene expression data BG069873 (Gnb1l)” value (24 h average) was −0.2107. For the same compound, the “Gene expression data BG070887 (Gtdc1)” value (24 h average) was −0.05163, the “Gene expression data BG076151 (Ppm1d)” value (24 h average) was −0.08637 and the “Gene expression data BG261907 (Large)” value (24 h average) was 0.09293. The “Gene expression data BI651416 (Cdc42bpg)” value (24 h average) was 0.01387, the “Gene expression data BI660702 (Ell3)” value (24 h average) was −0.1539 and the “Gene expression data BM198879 (Ercc5)” value (24 h average) was −0.2194. For the same compound, the “Gene expression data BM230508 (A030007D23Rik)” value (24 h average) was −0.1178, the “Gene expression data NM_007987 (Fas)” value (24 h average) was −0.1337 and the “Gene expression data NM_008522 (Ltf)” value (24 h average) was 0.0771. The “Gene expression data NM_008576 (Abcc1)” value (24 h average) was 0.3586, the “Gene expression data NM_011176 (St14)” value (24 h average) was −0.1445 and the “Gene expression data NM_011316 (Saa4)” value (24 h average) was −0.1988. The “Gene expression data NM_012006 (Acot1)” value (24 h average) was 1.862, the “Gene expression data NM_013866 (Zfp385)” value (24 h average) was −0.1953 and the “Gene expression data NM_018770 (Igsf4a)” value (24 h average) was −0.08853. The “Gene expression data NM_021451 (Pmaip1)” value (24 h average) was 0.01303, the “Gene expression data NM_025770 (Atg10)” value (24 h average) was −0.01263 and the “Gene expression data NM_028803 (Gbe1)” value (24 h average) was −0.0826. For the same compound, the “Gene expression data NM_030697 (Ankrd47)” value (24 h average) was −0.1623, the “Gene expression data NM_053168 (Trim11)” value (24 h average) was −0.201 and the “Gene expression data NM_134188 (Acot2)” value (24 h average) was 0.8696. The “Gene expression data Y15910 (Diap2)” value (24 h average) was 0.06533, the “Gene expression AA561726 average” value (48 h) was 0.3194 and the “Gene expression AF000969 average” value (48 h) was −0.5599. The “Gene expression AF022072 average” value (48 h) was 0.5563, the “Gene expression AF033112 average” value (48 h) was 0.1422 and the “Gene expression AF055573 average” value (48 h) was −0.1687. For the same compound, the “Gene expression AF069954 average” value (48 h) was −0.3847, the “Gene expression AF297615 average” value (48 h) was 0.111 and the “Gene expression AF335325 average” value (48 h) was −0.0865. The “Gene expression AI594683 average” value (48 h) was −0.5224 and the “Gene expression AI747296 average” value (48 h) was −0.0394.
